The values below come from patent US20240166602A1, “SUBSTITUTED DIARYL COMPOUND AS WELL AS PREPARATION METHOD AND APPLICATION THEREOF” (SHANDONG FIRST MEDICAL UNIV & SHANDONG ACADEMY OF MEDICAL …, priority 2021, published 2024).

What all share (type): cell-based
In experiment [1] the test system is human lung cancer (A549) cells. Description: MTT tumor cell growth inhibition, human lung cancer (A549). Particulars: Homo sapiens; A549, 48 h culture, MTT method; read-out: IC50 value of target compound against cancer cell proliferation, A549. On the procedure: (§1) Dissolve CHJ compound series with dimethyl sultbxide (DMSO, final concentration 0.4%), and use RPMI-1640 culture medium containing 15% fetal calf serum to prepare 1 mg/mL solution for future use. During drug administration in groups, use the culture medium to dilute it to the concentration needed.
(§2) Cell lines: human lung cancer (A549), Inman ovarian cancer (SKOV3), human melanoma (A375) and human colon cancer (LOVO) cell lines, all purchased from the Cell Bank of the Chinese Academy of Sciences, DMEM containing 15% fetal bovine serum (High Glucose) culture medium, placed in a 37° C., 5% CO2 incubator.
(§3) MTT is an oxidizing yellow dye with the chemical name of 3-(4,5-dimethyl-2-thiazolyl)-2,5-diphenyl-2-H-tetrazoliumbromide tetrazole bromide. The MMT method, also known as the MTT colorimetric method, can test the survival and growth of cells. The method is simple and easily accessible and often used to screet the substance with cytotoxic activity. The basic principle of testing, is that succinodehydrogenase can reduce exogenous MIT so that MTT is reduced to blueviolet crystal Formazan insoluble to water. The crystal deposits in cells. The succinodehydrogenase exists in the mitochondria of living cells, not in the dead cells. Therefore, the chromogenic reaction can only take place in living cells. Then, dissolve the blueviolet crystal Formazan contained in cells with dimethyl sulfoxide (DMSO), and measure its absorbancy with microplate reader so that the count of living cells is reflected indirectly. Within the scope of certain cell count, the amount of blueviolet crystal Formazan formed is positively correlated to the count of living cells.
(§4) Human lung cancer (A549), human ovarian cancer (SKOV3), human melanoma (A375) and human colon cancer (LOVO) ceilsare all adherent. Based on the growth rate of tumor cells, wash the adherent tumor cells in the logarithmic phase and digest them in 0.25% EDTA pancreatic enzyme. Adjust the cell count to 1×10^5/mL and inoculate the cells in 96-pore plate, each pore containing 100 μL. Culture the cells in the 37° C. CO2 incubator, and administer the drug 24 h later. Add pharmaceutical (CJH compound series) of different concentrations to the administration group. Set up 5 dosage groups for each pharmaceutical, respectively 100, 10, 1, 0.1, 0.01 μmol/L. Set up three complex pores for each concentration. Set up blank control, DMSO (0.8%) solvent control and cis-platinum positive control. After 48 h of culture in the 37 ° C. incubator containing 5% CO2, measure the OD value through MTT method and calculate the cell inhibition ratio.
(§5) After 48 h of culture of human lung cancer (A549), human ovarian cancer (SKOV3). human melanoma (A375) and human colon cancer (LOVO) cells, stop it and add 10 μL 0.5% MTT solution to each pore. Place it in the CO2 incubator for 4 h. Remove the liquid from each pore, respectively add 0.2 mL DMSO solution, and oscillate it adequately on the table concentrator under low frequency so that the blueviolet crystal Formazan is dissolved adequately. Place it in the microplate reader and record the OD value at the wavelength of […]. Calculate the average OD value of three parallel pores of different concentrations, and calculate the cell inhibition ratio and IC50 of each tested pharmaceutical under different concentrations based on the average.
(§6) Inhibition ratio (%)=[1-tested sample OD/negative control group OD]×100%.
(In general: Tetrazolium dyes change colour on reduction, which living cells bring about.)

The test system of experiment [2] is human ovarian cancer (SKOV3) cells. In words: MTT tumor cell growth inhibition, human ovarian cancer (SKOV3). As to conditions: Homo sapiens, SK-OV-3; SKOV3, 48 h culture, MTT method; read-out: IC50 value of target compound against cancer cell proliferation, SKOV3. On the procedure:
as §1, §2, §3, §4, §5, §6

The subject of experiment [3] is human melanoma (A375) cells. Description: MTT tumor cell growth inhibition, human melanoma (A375). Particulars: Homo sapiens, A-375; A375, 48 h culture, MTT method; read-out: IC50 value of target compound against cancer cell proliferation, A375. The procedure: as §1, §2, §3, §4, §5, §6
Experiment [4] has as its system human colon cancer (LOVO) cells. Description: MTT tumor cell growth inhibition, human colon cancer (LOVO). As to conditions: Homo sapiens, 48 h culture, MTT method, read-out: IC50 value of target compound against cancer cell proliferation, LOVO. The procedure:
as §1, §2, §3, §4, §5, §6

Consider `COc1cc(CN(C)CC(O)COc2ccc(Cl)c(Cl)c2)ccc1OCCN1CCC(C)CC1` (stereo not shown) [CHJ04026, 1-(3,4-dichlophenoxy)-3-((3-methoxy-4-(2-(4-methylpiperidin-1-yl)ethoxy)benzyl) (methyl)amino)propan-2-ol], for which the IC50 in experiment [1] came to 0.97 ± 0.21 µM; in experiment [2], 7.45 ± 2.26 µM; in experiment [3], 1.5 ± 0.06 µM; in experiment [4], 0.82 ± 0.42 µM.
For `COc1cc(CN(C)CC(O)COc2ccccc2I)ccc1OCCN1CCC(C)CC1` (stereo not shown) [CHJ04027] the same measures were 6.22 ± 1.34 µM, 3.02 ± 1.76 µM, 0.73 ± 0.13 µM and 2.35 ± 1.04 µM.
On to `COc1cc(CN(C)CC(O)COc2c(Cl)cc(Br)cc2Cl)ccc1OCCN1CCC(C)CC1` (stereo not shown) [CHJ04033, 1-(4-bromo-2,6-dichlorophenoxy)-3-((3-methoxy-4-(2-(4-methylpiperidin-1-yl)ethoxy)benzyl)(methyl)amino)propan-2-ol], for which the IC50 in experiment [1] came to 0.95 ± 0.37 µM; in experiment [2] it was 6.22 ± 3.05 µM; in experiment [3] it was 0.92 ± 0.07 µM; in experiment [4], 2.23 ± 1.26 µM.
The like results for `COc1cc(CN(C)CC(O)COc2cc(Cl)cc(Br)c2)ccc1OCCN1CCC(C)CC1` (stereo not shown) [CHJ04034, 1-(3-bromo-5-chlorophenoxy)-3-((3-methoxy-4-(2-(4-methylpiperidin1-yl)ethoxy)benzyl)(methyl)amino)propan-2-ol] were, in that order, 0.86 ± 0.45 µM, 3.06 ± 1.1 µM, 0.65 ± 0.14 µM and 1.16 ± 0.94 µM.
The like results for `COc1cc(CN(C)CC(O)COc2cccc(NC(C)=O)c2)ccc1OCCN1CCC(C)CC1` (stereo not shown) [CHJ04058, N-(3-(2-hydroxy-3((3-methoxy-4-(2-(4-methylpiperidin-1-yl)ethoxy)benzyl)(methyl)amino)propoxy)phenyl)acetamide] were, in that order, 245.3 ± 2.4 µM, 102 ± 1.48 µM, 56.21 ± 0.55 µM and 54 ± 2.14 µM.
For `COc1cc(CN(C)CC(O)COc2ccc(Cl)cc2Cl)ccc1OCCN1CCC(C)CC1` (stereo not shown) [CHJ04059, 1-(2,4-dichlorophenoxy)-3-((3-methoxy-4-(2-(4-methylpiperidin-1-yl)ethoxy)benzyl) (methyl)amino)propan-2-ol] the same measures were 10.6 ± 3.37 µM, 3.26 ± 1.21 µM, 3.23 ± 0.49 µM and 3.92 ± 0.56 µM.
Regarding `COc1cc(CN(C)CC(O)COc2ccc(C)c(Br)c2)ccc1OCCN1CCCC1` (stereo not shown) [CHJ04064, 1-(3-bromo-4-methylphenoxy)-3-((3-methoxy-4-(2-(pyrrolidin-1-yl)ethoxy)benzyl) (methyl)amino)propan-2-ol], the IC50 came to 21.5 ± 3.65 µM in experiment [1], 17.1 ± 0.24 µM in experiment [2], 9.24 ± 2.65 µM in experiment [3] and 3.55 ± 2.14 µM in experiment [4].
The like results for `COc1cc(CN(C)CC(O)COc2cc(Cl)cc(Cl)c2)ccc1OCCN1CCCC1` (stereo not shown) [CHJ04066, 1-(3,5-dichlorophenoxy)-3-((3-methoxy-4-(2-(pyrrolidin-1-yl)ethoxy)benzyl)(methyl)amino)propan-2-ol] were, in that order, 29.9 ± 2.45 µM, 77.1 ± 4.07 µM, 10.3 ± 1.4 µM and 2.5 ± 0.65 µM.
As for `COc1cc(CN(C)CC(O)COc2ccc(Cl)c(Cl)c2)ccc1OCCN1CCCC1` (stereo not shown) [CHJ04072, 1-(3,4-dichlorophenoxy)-3-((3-methoxy-4-(2-(pyrrolidin-1-yl)ethoxy)benzyl)(methyl)amino)propan-2-ol], the IC50 in experiment [1] worked out at 12.5 ± 2.44 µM; in experiment [2], 9.62 ± 4.23 µM; in experiment [3], 2.26 ± 0.37 µM; in experiment [4], 5.21 ± 2.31 µM.
For `COc1cc(CN(C)CC(O)COc2ccccc2C(F)(F)F)ccc1OCCN1CCC(C)CC1` (stereo not shown) [CHJ04082] the same measures were 22.3 ± 1.98 µM, 28.5 ± 5.22 µM, 7.51 ± 2.62 µM and 2.82 ± 1.05 µM.
The like results for `COc1cc(CN(C)CC(O)COc2ccc(Cl)cc2)ccc1OCCN1CCC(C)CC1` (stereo not shown) [CHJ04083, 1-(4-chlorophenoxy)-3((3-methoxy-4-(2-(4-methylpiperidin-1-yl)ethoxy)benzyl)(methyl)amino)propan-2-ol] were, in that order, 13.3 ± 2.02 µM, 10.4 ± 1.43 µM, 2.44 ± 1.03 µM and 1.23 ± 0.17 µM.
As to `COc1ccc(OCC(O)CN(C)Cc2ccc(OCCN3CCC(C)CC3)c(OC)c2)cc1` (stereo not shown) [CHJ04084, 1-((3-methoxy-4-(2-(4-methylpiperidin-1-yl)ethoxy)benzyl)(methyl)amino)-3-(4-methoxyphenoxy)propan-2-ol], the IC50 turned out to be 42.7 ± 3.06 µM in experiment [1], 96.4 ± 2.72 µM in experiment [2], 16.7 ± 2.48 µM in experiment [3] and 7.54 ± 1.02 µM in experiment [4].
Regarding `COc1cc(CN(C)CC(O)COc2ccccc2Cl)ccc1OCCN1CCC(C)CC1` (stereo not shown) [CHJ04085, 1-(2-chlorophenoxy)-3-((3-methoxy-4-(2-(4-methylpiperidin-1-yl)ethoxy)benzyl) (methyl)amino)propan-2-ol], the IC50 was 28.8 ± 5.12 µM in experiment [1], 49.2 ± 1.97 µM in experiment [2], 7.32 ± 1.8 µM in experiment [3] and 1.94 ± 0.79 µM in experiment [4].
The like results for `CCN(CC)CCOc1ccc(CN(C)CC(O)COc2ccccc2C(C)C)cc1OC` (stereo not shown) [CHJ04089, 1-((4-(2-(diethylamino)ethoxy)-3-methoxybenzyl)(methyl)amino)-3-(2-isopropylphenoxy)propan-2-ol] were, in that order, 27.8 ± 1.73 µM, 42.7 ± 2.61 µM, 15 ± 2.37 µM and 49.5 ± 3.54 µM.
The like results for `CCN(CC)CCOc1ccc(CN(C)CC(O)COc2cc(C(F)(F)F)ccc2Br)cc1OC` (stereo not shown) [CHJ04090, 1-(2-bromo-5-(trifluoromethyl)phenoxy)-3-((4-(2-(diethylamino)ethoxy)-3-methoxybenzyl)(methyl)amino)propan-2-ol] were, in that order, 35 ± 2.21 µM, 36.4 ± 2.17 µM, 11.7 ± 2.12 µM and 34 ± 2.59 µM.
For `CCN(CC)CCOc1ccc(CN(C)CC(O)COc2ccc(Cl)c(Cl)c2)cc1OC` (stereo not shown) [CHJ04091, 1-(3,4-dichlorophenoxy)-3-((4-(2-(diethylamino)ethoxy)-3-methoxybenzyl)(methyl)amino)propan-2-ol] the same measures were 11.1 ± 1.33 µM, 17.8 ± 3.11 µM, 4.01 ± 3.11 µM and 10.6 ± 3.2 µM.
With `CCN(CC)CCOc1ccc(CN(C)CC(O)COc2ccc(F)c(Br)c2)cc1OC` (stereo not shown) [CHJ04092, 1-(3-bromo-4-fluorophenoxy)-3-((4-(2-(diethylamino)ethoxy)-3-methoxybenzyl)(methyl)amino)propan-2-ol], the IC50 in experiment [1] was 30.2 ± 2.76 µM; in experiment [2], 34.5 ± 2.7 µM; in experiment [3], 11.2 ± 1.05 µM; in experiment [4] it was 47.9 ± 3.43 µM.
As to `CCN(CC)CCOc1ccc(CN(C)CC(O)COc2ccc(Br)c(C(F)(F)F)c2)cc1OC` (stereo not shown) [CHJ04093], the IC50 came out at 20.1 ± 2.01 µM in experiment [1], 10.2 ± 1.69 µM in experiment [2], 2.6 ± 1.22 µM in experiment [3] and 14.5 ± 2.14 µM in experiment [4].
In the case of `CCN(CC)CCOc1ccc(CN(C)CC(O)COc2c(Cl)cc(Br)cc2Cl)cc1OC` (stereo not shown) [CHJ04094, 1-(4-bromo-2,6-dichlorophenoxy)-3-((4-(2-(diethylamino)ethoxy)-3-methoxybenzyl) (methyl)amino)propan-2-ol], the IC50 in experiment [1] is 18.4 ± 3.17 µM; in experiment [2], 15.9 ± 2.11 µM; in experiment [3], 2.05 ± 1.01 µM; in experiment [4], 28.5 ± 4.42 µM.
